From ChEMBL document CHEMBL1201862, “PubChem BioAssay data set” (2004)
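The compound was tested at five concentrations on cells cultured in 96-well plates, with a 48-hour exposure period. GI50 is the concentration that inhibits growth by half.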 Calls of active or inactive are those of the source. No stated cut-off is given here; in the data, active = GI50 up to about 1.1 µM and inactive = higher.

What was measured:
Assay in all cases: NCI tumour cell line growth inhibition, 48 h
CAKI-1 = test system: CAKI-1
OVCAR-4 = test system: OVCAR-4
RPMI-8226 = test system: RPMI-8226
PC-3 = test system: PC-3
SF-295 = test system: SF-295
DU-145 = test system: DU-145
IGROV-1 = test system: IGROV-1
HOP-92 = test system: HOP-92
T47D = test system: T47D
Malme-3M = test system: Malme-3M
A549 = test system: A549
KM12 = test system: KM12
SNB-19 = test system: SNB-19
A498 = test system: A498
SK-MEL-2 = test system: SK-MEL-2
OVCAR-8 = test system: OVCAR-8
U-251 = test system: U-251
UACC-257 = test system: UACC-257
TK-10 = test system: TK-10
HCC 2998 = test system: HCC 2998

Measured: GI50

Cc1nc(N)nc2ccccc12
inactive: CAKI-1 > 100 µM | OVCAR-4 > 100 µM | RPMI-8226 > 100 µM | PC-3 > 100 µM | SF-295 > 100 µM | DU-145 > 100 µM | IGROV-1 > 100 µM | HOP-92 > 100 µM | T47D > 100 µM | Malme-3M > 100 µM | A549 > 100 µM | KM12 > 100 µM | SNB-19 > 100 µM | A498 > 100 µM | SK-MEL-2 > 100 µM | OVCAR-8 > 100 µM | U-251 > 100 µM | UACC-257 > 100 µM | TK-10 > 100 µM

Cc1ccc(S(=O)(=O)OCC(=O)O)cc1
inactive: CAKI-1 > 100 µM | OVCAR-4 > 100 µM | RPMI-8226 > 100 µM | PC-3 > 100 µM | SF-295 > 100 µM | DU-145 > 100 µM | IGROV-1 > 100 µM | HOP-92 > 100 µM | T47D > 100 µM | Malme-3M > 100 µM | A549 > 100 µM | SNB-19 > 100 µM | A498 > 100 µM | SK-MEL-2 > 100 µM | OVCAR-8 > 100 µM | U-251 > 100 µM | UACC-257 > 100 µM | TK-10 > 100 µM

Nc1c(OCC(=O)O)ccc2cc(S(=O)(=O)O)ccc12
inactive: CAKI-1 > 100 µM | OVCAR-4 > 100 µM | RPMI-8226 > 100 µM | HCC 2998 > 100 µM | PC-3 > 100 µM | SF-295 > 100 µM | DU-145 > 100 µM | IGROV-1 > 100 µM | T47D > 100 µM | Malme-3M > 100 µM | A549 > 100 µM | KM12 > 100 µM | SNB-19 > 100 µM | A498 > 100 µM | SK-MEL-2 > 100 µM | OVCAR-8 > 100 µM | U-251 > 100 µM | UACC-257 > 100 µM | TK-10 > 100 µM

CNC(=O)CNC(=O)N(C[C@@H]1CCCN1C(=O)[C@H](CC(C)C)NC(=O)OC(C)(C)C)C(C)C
inactive: CAKI-1 > 100 µM | OVCAR-4 > 100 µM | RPMI-8226 > 100 µM | HCC 2998 > 100 µM | PC-3 > 100 µM | SF-295 > 100 µM | DU-145 > 100 µM | IGROV-1 > 100 µM | T47D > 100 µM | Malme-3M > 100 µM | A549 > 100 µM | KM12 > 100 µM | SNB-19 > 100 µM | A498 > 100 µM | SK-MEL-2 > 100 µM | OVCAR-8 > 100 µM | U-251 > 100 µM

COc1ccc2c(c1O)[C@@]13CCCC=C1[C@@H](C2)[N+](C)(C)CC3
inactive: CAKI-1 > 100 µM | OVCAR-4 > 100 µM | HCC 2998 > 100 µM | PC-3 > 100 µM | SF-295 > 100 µM | DU-145 > 100 µM | IGROV-1 > 100 µM | HOP-92 > 100 µM | T47D > 100 µM | Malme-3M > 100 µM | A549 > 100 µM | KM12 > 100 µM | SNB-19 > 100 µM | SK-MEL-2 > 100 µM | OVCAR-8 > 100 µM | U-251 > 100 µM | UACC-257 79.1 µM | TK-10 > 100 µM

CC1(c2ccc(Cl)cc2)C=C(c2ccc(Cl)cc2)C(C#N)=C(C(C#N)C#N)N1.CNC (stereo not given)
inactive: CAKI-1 16.9 µM | OVCAR-4 15.1 µM | RPMI-8226 34.4 µM | HCC 2998 16.3 µM | PC-3 16.6 µM | SF-295 17.6 µM | DU-145 16.1 µM | IGROV-1 12.9 µM | T47D 14.2 µM | Malme-3M 14.1 µM | A549 19.2 µM | KM12 17.3 µM | SNB-19 18.2 µM | A498 17.9 µM | SK-MEL-2 19.5 µM | OVCAR-8 14.5 µM | U-251 16.1 µM | UACC-257 17.5 µM | TK-10 18.7 µM

CCC1OC(=O)CC(O)C(C)C(OC2OC(C)C(O)C(N(C)C)C2O)C(CC=O)CC(C)C(=O)/C=C/C2(C)OC2C1C (stereo not given)
inactive: CAKI-1 23.1 µM | OVCAR-4 55.1 µM | RPMI-8226 11.1 µM | HCC 2998 15.9 µM | PC-3 47.9 µM | SF-295 67.9 µM | DU-145 20.7 µM | IGROV-1 23.1 µM | T47D 17.2 µM | Malme-3M 11.6 µM | A549 33.8 µM | KM12 15.3 µM | SNB-19 44.4 µM | A498 36.9 µM | SK-MEL-2 48.3 µM | OVCAR-8 3.19 µM | U-251 30.2 µM | UACC-257 17.3 µM | TK-10 34.2 µM

CC(NC(=O)C(OC(=O)C(C)NC(=O)OC(C)(C)C)C(C)C)C(=O)OC(C(=O)O)C(C)C (stereo not given)
inactive: CAKI-1 > 100 µM | RPMI-8226 > 100 µM | HCC 2998 > 100 µM | PC-3 > 100 µM | SF-295 > 100 µM | DU-145 > 100 µM | IGROV-1 > 100 µM | HOP-92 > 100 µM | T47D > 100 µM | Malme-3M > 100 µM | A549 > 100 µM | KM12 > 100 µM | SNB-19 > 100 µM | SK-MEL-2 > 100 µM | OVCAR-8 > 100 µM | U-251 > 100 µM | UACC-257 > 100 µM | TK-10 > 100 µM

C[C@@H]1CC(=O)C[C@@H]2CC[C@H]3[C@@H]4CC[C@H](OC(=O)c5cccc6cc7ccccc7nc56)[C@H]4CC[C@@H]3[C@H]21
inactive: CAKI-1 17.4 µM | OVCAR-4 13.6 µM | PC-3 12.1 µM | SF-295 27.8 µM | DU-145 14 µM | IGROV-1 3.89 µM | HOP-92 23.3 µM | T47D 13.7 µM | Malme-3M 8.71 µM | A549 25.1 µM | KM12 14.3 µM | SNB-19 17.7 µM | SK-MEL-2 17.1 µM | OVCAR-8 16 µM | U-251 7.11 µM | UACC-257 14.3 µM | TK-10 27.9 µM

CNC(=S)NNc1ncnc2c1ncn2-c1ccc(C)cc1
inactive: CAKI-1 > 100 µM | OVCAR-4 > 100 µM | RPMI-8226 > 100 µM | PC-3 > 100 µM | SF-295 > 100 µM | DU-145 > 100 µM | IGROV-1 > 100 µM | HOP-92 > 100 µM | T47D > 100 µM | Malme-3M > 100 µM | A549 > 100 µM | KM12 > 100 µM | SNB-19 > 100 µM | A498 > 100 µM | SK-MEL-2 > 100 µM | OVCAR-8 > 100 µM | U-251 > 100 µM | UACC-257 > 100 µM | TK-10 > 100 µM

OCC1=C[C@@](COCc2ccccc2)(OCc2ccccc2)[C@@H](OCc2ccccc2)[C@@H]1OCc1ccccc1
inactive: CAKI-1 14.5 µM | OVCAR-4 21.4 µM | RPMI-8226 2.49 µM | HCC 2998 13.7 µM | PC-3 15.1 µM | SF-295 13.2 µM | DU-145 37.6 µM | IGROV-1 7.01 µM | T47D 19.3 µM | Malme-3M 18 µM | A549 10.5 µM | KM12 15.9 µM | SNB-19 42.8 µM | A498 10.9 µM | SK-MEL-2 12.7 µM | OVCAR-8 36.2 µM | U-251 6.59 µM | UACC-257 22.6 µM | TK-10 21.3 µM

O=[N+]([O-])/C(C(Cl)=C(Cl)Cl)=C(\NCc1ccccc1)Sc1ccccc1
inactive: CAKI-1 37.3 µM | OVCAR-4 28.6 µM | RPMI-8226 34.7 µM | HCC 2998 34.9 µM | PC-3 27.5 µM | SF-295 20.6 µM | DU-145 36.6 µM | T47D 30.8 µM | Malme-3M 16.8 µM | A549 30.2 µM | KM12 16.5 µM | SNB-19 41.2 µM | A498 25.9 µM | SK-MEL-2 25.1 µM | OVCAR-8 16.9 µM | U-251 32.3 µM | UACC-257 33.9 µM

COc1nc(C(=O)NNC(=O)c2nc(OC)c3ccccc3c2-c2ccccc2)c(-c2ccccc2)c2ccccc12
inactive: CAKI-1 > 100 µM | OVCAR-4 > 100 µM | RPMI-8226 > 100 µM | HCC 2998 > 100 µM | PC-3 > 100 µM | SF-295 > 100 µM | DU-145 > 100 µM | IGROV-1 > 100 µM | T47D > 100 µM | Malme-3M > 100 µM | A549 > 100 µM | KM12 > 100 µM | SNB-19 > 100 µM | A498 > 100 µM | SK-MEL-2 > 100 µM | OVCAR-8 > 100 µM | U-251 > 100 µM | UACC-257 > 100 µM | TK-10 > 100 µM

N#C[C@H]1Nc2ccccc2[C@@H](O)C1O (stereo not given in full)
inactive: CAKI-1 > 100 µM | OVCAR-4 > 100 µM | RPMI-8226 > 100 µM | HCC 2998 > 100 µM | PC-3 > 100 µM | SF-295 > 100 µM | DU-145 > 100 µM | IGROV-1 > 100 µM | HOP-92 > 100 µM | T47D > 100 µM | Malme-3M > 100 µM | A549 > 100 µM | KM12 > 100 µM | SK-MEL-2 > 100 µM | OVCAR-8 > 100 µM | U-251 > 100 µM | UACC-257 > 100 µM | TK-10 > 100 µM

CC(C(=O)O)c1ccc(-c2ccccc2)c(F)c1 (stereo not given) [FLURBIPROFEN]
inactive: CAKI-1 > 100 µM | OVCAR-4 > 100 µM | RPMI-8226 > 100 µM | HCC 2998 > 100 µM | PC-3 > 100 µM | SF-295 > 100 µM | DU-145 > 100 µM | IGROV-1 > 100 µM | HOP-92 > 100 µM | T47D > 100 µM | Malme-3M > 100 µM | A549 > 100 µM | KM12 > 100 µM | SNB-19 > 100 µM | SK-MEL-2 > 100 µM | OVCAR-8 > 100 µM | U-251 > 100 µM | UACC-257 > 100 µM | TK-10 > 100 µM
